The record followed here is patent US20090298938A1, “USE OF SEMI SYNTHETIC ANALOGUES OF BOSWELLIC ACIDS FOR ANTICANCER ACTIVITY” (COUNCIL OF SCIENTIFIC & INDUSTRIAL RESEARCH, priority 2008, published 2009).

Experiment [1] deals with SW-620 colon cancer cells. Description: In vitro cytotoxicity, SRB assay, SW-620. The format is cell-based, human. The procedure:
(§1) The semi-synthetic analogues of formula 1 have been subjected to in vitro cytotoxicity screening in a panel of human cancer cell lines using following methodology. The human cancer cell lines were obtained either from National Center for Cell Science, Pune or National Cancer Institute, Fredrick, Md., USA. Cells were grown in tissue culture flasks in complete growth medium (RPMI-1640 medium with 2 mM glutamine, 100 µg/ml streptomycin, pH 7.4, sterilized by filtration and supplemented with 10% sterilized fetal calf serum and 100 units/ml penicillin before use) at 37° C. in an atmosphere of 5% CO2 and 90% relative humidity in a carbon dioxide incubator. The cells at sub-confluent stage were harvested from flask by treatment with trypsin (0.05% trypsin in PBS containing 0.02% EDTA) and suspended in complete growth medium. Cells with cell viability of more than 97% by trypan blue exclusion technique were used for determination of cytotoxicity.
(§2) Test material were dissolved in DMSO (dimethyl sulphoxide) to obtain a stock solution of 2×10^−2M. The stock solution was serially diluted with complete growth medium containing 50 μg/ml of gentamycin to obtain working test solutions of required concentrations.
(§3) The suspension of human cancer cell lines of required cell density in complete growth medium was prepared and cell suspension (100 μl/well) of each cell line was added to wells of 96-well tissue culture plate. Suitable blanks and controls were also included. The plates were incubated for 24 hrs in a carbon dioxide incubator.
(§4) The working test solutions of different concentrations (100 μl/well) were added after 24 hr incubation. The plates were further incubated for 48-hrs after addition of the test materials. After incubation, the cell growth was stopped by gently layering of 50 μl of TCA (50% trichloroacetic acid) on top of the medium in all the wells. The plates were incubated at 4° C. for one hour to fix the cells attached to bottom of the wells. Liquids of all the wells were gently pipetted out and discarded. The plates were washed five times with distilled water to remove TCA, growth medium, low molecular weight metabolites, serum proteins etc. The plates were air dried.
(§5) Cell growth was measured by staining with sulforhodamine B dye (SRB). The SRB solution (100 μl, 0.4% in 1% acetic acid) was added to each well and the plates were incubated at room temperature for 30 minutes. The unbound SRB was quickly removed by washing the wells five times with 1% acetic acid solution and plates were air dried. Tris buffer (100 μl, 0.01 M, pH 10.4) was added to all the wells and plates were gently stirred for 5 minutes on a mechanical stirrer. The optical density was recorded on ELISA reader at 540 nm.
(§6) Cell growth in the presence of test material was calculated in terms of the percentage of growth inhibition. The in vitro cytotoxicity of four natural boswellic acid i.e. boswellic acid, acetyl boswellic acid, 11-keto-boswellic acids, acetyl-11-ketio-boswellic acid on various cancer cell lines has been examined and typical results are given in the succeeding table. Based on their cytotoxicity profile the analogues of formula 1 were studied for inhibition of cell proliferation by using MTT assay method. […] The induction of apoptosis in HL-60 cells was also validated by generation of DNA fragmentation.
(§7) Assay of cytotoxicity potential of test materials is a primary standard procedure for seeking lead molecules for development of anti-cancer leads. Human cancer cells after trypsinization into single cell suspension were grown in 96-well culture plate for 24 hr. Cells were treated with indicated doses of test analogues and incubated in CO2 incubator for 48 hr. Thereafter, cells were stained with sulforhodamine B dye, and the bound dye was eluted to measure the optical density indicating cell growth in Elisa Reader at 540 nm [Monks et al., 1991]. […]
In general terms: The SRB assay estimates cell density from bound dye.

In the next experiment the test system is Hep-2 cells. The experiment can be described thus: In vitro cytotoxicity, SRB assay, Hep-2. The format is cell-based, human. The procedure: as §1, §2, §3, §4, §5, §6, §7
Experiment [2] has as its system Colo-205 colon cancer cells. The experiment can be described thus: In vitro cytotoxicity, SRB assay, Colo-205. The class given is cell-based, human. As for the experimental part:
as §1, §2, §3, §4, §5, §6, §7

The subject of experiment [3] is Ehrlich Ascitic Carcinoma solid tumor. The experiment can be described thus: Ehrlich ascitic tumor (solid) growth inhibition in mice. The note with it: 22 mg/kg intraperitoneally, 9 days, evaluated day 13, positive control. The class given is in vivo, Swiss albino mice. The procedure:
FIG. 9. Tumor growth inhibition by boswellic acid analogs. Mice treated intraperitoneally with a compound (designated “c”) of formula 1, wherein R3=COCH2CH2CH3, R1=H, R4+R5=O, have shown 22% tumor growth inhibition at a dose of about 50 mg/kg of body weight, and 41% tumor growth inhibition at a dose of 100 mg/kg of body weight.
Swiss albino mice of 6-8 weeks, weighing 18-23 g of single sex were used. For the initiation of experiment, 1×10^7 cells of EAC (Ehrlich Ascitic Carcinoma) cells were transplanted intramuscularly (i.m.) in 32 mice for the development of solid tumors. The day of tumor transplantation was assigned as day 0. Next day (day-1) animals were randomly selected and divided into four groups having equal number of mice in each group of similar body wt. Groups I and II were treated with compound of formula 1 where R3=COCH2CH2CH3, R1=H, R4+R5=O at the dose of 50 mg/kg b, wt and 100 mg/kg b. wt. intraperitoneally, respectively. Group III received 0.2 ml of 0.85% normal saline and served as normal control while group IV serving as positive control was treated with 5-FU (22 mg/kg b. wt.) intraperitoneally. The total duration of treatment was of 9 days. The evaluation of effect of treatment on tumor was done on 13th day. Ehrlich ascites cells (1×10^7) were injected intramuscularly in the right thigh muscles and on the following day animals started receiving treatment intraperitoneally in 0.5% Tween-20 daily at the indicated doses for 9 days. The growth of tumor and the efficacy of compound of formula 1, where R3=COCH2CH2CH3, R1=H, R4+R5=O in inhibiting tumor growth were evaluated on day 13 in terms of the weight of the tumor in treated and control groups count. The determination of solid tumor growth inhibition against EAT was calculated as percent tumor growth regression according to the following: […]

For the next experiment, the system named is PC-3 cells. Description: In vitro cytotoxicity, SRB assay, PC-3. The class given is cell-based, human. As for the experimental part:
as §1, §2, §3, §4, §5, §6, §7

In the next experiment the test system is HT-29 colon cancer cells. Description: In vitro cytotoxicity, SRB assay, HT-29. The format is cell-based, human. As for the experimental part:
as §1, §2, §3, §4, §5, §6, §7

The next experiment relates to HL-60 cells. Description: Apoptosis induction, annexin V-FITC/PI flow cytometry. The format is cell-based, human. As to conditions: HL-60, 15 μM, 6 hr. As for the experimental part: FIG. 2. Comparative efficacy of apoptosis induction: Measurement by flow cytometry. The effects of boswellic acid on the relative efficiency of induction of apoptosis and necrosis in HL-60 cells were analyzed by flow cytometry. Cells were incubated with each analog for 6 hrs and stained with annexin V-FITC labeled. The dot plots are representative of one of the two separate experiments. Values in the lower right quadrant represent the apoptotic population in the UR as post-apoptotic and in the UL as necrotic. Where a=compound of formula 1, R3=COCH2CH2CH3, […], R4=[…], b=compound of formula 1, R3=COCH2CH3R1=H, R4=[…], c=compound of formula 1, R3=COCH2CH2CH3, […], R4+R5=O, d=compound of formula 1, […], R3=COCH2CH3, R4=[…], e=compound of formula 1, R3=COCH2CH2CH3, […], R4=[…], f=β-boswellic acid. Compounds of formula 1 where […], R3=COCH2CH3R3=[…]; R3=COCH2CH2CH3, […], R4=[…] and natural β-boswellic acid produced low level of apoptotic cell population (approx. 10%) compared to compound of formula 1 where R3=COCH2CH2CH3, […], R4=[…] (17%), […], R3=COCH2CH3, R4=[…] (30%) and where R3=COCH2CH2CH3, […], R4+R5=O (23%), although the combined apoptotic and post-apoptotic population was about 32% with the last three analogs. Confirmation that boswellic acid analogs are potent inducers of apoptosis may also be obtained from DNA fragmentation assay. During the early events of apoptosis, phospholipid phosphatidyl serine of plasma membrane is externalized, which has very high affinity for annexinV antibody. Effect of a single concentration (15 μM) of each boswellic acid analogs on the relative efficiency of induction of apoptosis and necrosis in HL-60 cells was analyzed by flow cytometry. Cells were incubated with each analog for 6 hr and stained with Annexin V-FITC/PI. Camptothecin at 4 μM was used as positive control. There after, cells were washed and stained with FITC conjugated annexinV antibody and propidium iodide. The cells (10,000) were analysed by flow cytometery (BD, LSR) using ProQuest software.

Where [4] appears, read: Conc. 5 × 10^5 (r27-r29: 5 × 10^−5), 48 hr, Table 1.
The mark [5] stands for this setting: Conc. 5 × 10^−5, 48 hr, natural boswellic acids.

With `O=c1[nH]cc(F)c(=O)[nH]1` [Compound 5-FU, 5-FU, reference compound], the “Growth inhibition % SW-620 Colon” value in experiment [1] (Conc. 1 × 10^4, Table 2) was determined as 7%; in experiment [1] (Conc. 1 × 10^5, Table 2), 0%. Also, the “Growth inhibition % Hep-2” value in the experiment with Hep-2 cells (Conc. 1 × 10^4, Table 2) amounted to 5%; in the experiment on Hep-2 cells (Conc. 1 × 10^5, Table 2) it was 14%. The “Growth inhibition % Colo-205 Colon” value in experiment [2] (Conc. 1 × 10^4, Table 2) is listed as 39%; in experiment [2] (Conc. 1 × 10^5, Table 2) it was 43%. In addition, in experiment [3], the tumor growth inhibition is given as 56%. The “Growth inhibition % PC-3” value came out at 52% with PC-3 cells (Conc. 1 × 10^4, Table 2) and 37% in the experiment on PC-3 cells (Conc. 1 × 10^5, Table 2). Besides, the “Growth inhibition % HT-29 Colon” value in the experiment on HT-29 colon cancer cells (Conc. 1 × 10^4, Table 2) was determined as 21%; with HT-29 colon cancer cells (Conc. 1 × 10^5, Table 2), 40%.

On to `CCC(=O)OC1CCC2(C)C(CCC3(C)C2CC=C2C4C(C)C(C)CCC4(C)CCC23C)C1(C)C(=O)O` (stereo not shown) [b], for which the apoptotic cell population result in the experiment with HL-60 cells (listed as R1=H, R3=COCH2CH3R3=R4=H) is reported as “approx. 10%”.

Take `CCC(=O)OC1CCC2(C)C(CCC3(C)C2CC=C2C4C(C)C(C)CCC4(C)CCC23C)C1(C)C(=O)O` (stereo not shown) [d]: the “combined apoptotic and post-apoptotic population” value in the experiment with HL-60 cells is given as “about 32%”. In addition, the apoptotic cell population in the experiment on HL-60 cells (listed as R1=H, R3=COCH2CH3, R4=R5=H) is 30%.

As to `CC1CCC2(C)CCC3(C)C(=CCC4C5(C)CCC(O)C(C)(C(=O)O)C5CCC43C)C2C1C` (stereo not shown) [1, R3 = H, R1 = H, R4 = R5 = H], the “Growth inhibition % SW-620 Colon” value in experiment [1] (setting [4]) is reported as 65%. Further, the “Growth inhibition % Hep-2” value in the experiment with Hep-2 cells (setting [4]) turned out to be 66%. Besides, the “Growth inhibition % Colo-205 Colon” value in experiment [2] (setting [4]) was found to be 85%. Also, in the experiment on PC-3 cells (setting [4]), the “Growth inhibition % PC-3” value stood at 69%. Also, in the experiment with HT-29 colon cancer cells (setting [4]), the “Growth inhibition % HT-29 Colon” value amounted to 73%.

For `C[C@H]1[C@H](C)CC[C@]2(C)CC[C@]3(C)C(=CC[C@@H]4[C@@]5(C)CC[C@@H](O)[C@](C)(C(=O)O)[C@@H]5CC[C@]43C)[C@H]12` [β-boswellic acid, reference compound], the apoptotic cell population result in the experiment on HL-60 cells is on record as “approx. 10%”.

In the case of `C[C@H]1[C@H](C)CC[C@]2(C)CC[C@]3(C)C(=CC(=O)[C@@H]4[C@@]5(C)CC[C@@H](O)[C@](C)(C(=O)O)[C@@H]5CC[C@]43C)[C@H]12` [11-keto-boswellic acid, reference compound], in experiment [1] (setting [5]), the “Growth inhibition % SW-620 Colon” value is 28%. Besides, the “Growth inhibition % Hep-2” value in the experiment with Hep-2 cells (setting [5]) came out at 34%. The “Growth inhibition % Colo-205 Colon” value in experiment [2] (setting [5]) was determined as 50%. The “Growth inhibition % PC-3” value in the experiment on PC-3 cells (setting [5]) came out at 100%. Further, the “Growth inhibition % HT-29 Colon” value in the experiment on HT-29 colon cancer cells (setting [5]) is 38%.
